Patent US8674096B2, “Substituted imidazo[1,5-a]quinoxalin-4-ones as phosphodiesterase 9 inhibitors” (priority 2009, dated 2014)

Legend:
PDE9 = molecular target: T1, PDE9 (Homo sapiens, UniProt O76083); test: PDE9-inhibiting activity (SPA, 3H-cGMP degradation); type: biochemical
T1 construct: made in house
Procedure: The PDE9 used in the present experiment was expressed/purified by the method as in, for example, Guipponi et al., and Fisher et., al. (Fisher, D. A., et al., J. Biol. Chem., 273: pp. 15559-15564 (1998), Guipponi, M., et al., Hum. Genet., 103: pp. 386-392 (1998)).
The PDE9-inhibiting activity was measured by the following method. That is, to a buffer solution containing tris(hydroxymethyl)aminomethane-hydrochloric acid (40 mM, pH 8.0), magnesium chloride (5 mM), and 2-mercaptoethanol (4 mM) were added cGMP (1 μM) and ^3H-cGMP (0.33 μCi/ml) to give a substrate buffer solution. A test substance solution and an enzyme solution which had been adjusted to an optimal concentration were added thereto to perform a reaction at 30° C. The enzyme reaction was stopped by the addition of Scintillation Proximity Assay (SPA) Beads (GE Healthcare, UK) containing 5 mM 3-isobutyl-1-methylxanthine (IBMX). For the enzyme activity, the amount of 5′-GMP, which is a reaction degradation product bound to SPA beads, was measured with a TopCount microplate reader (Hewlett Packard, USA).
The inhibitory rate was calculated by taking the radioactivity of the control containing no test substance as (A), taking the radioactivity of the blank containing no enzyme as (B), and taking the radioactivity of the test substance as (C), and using the following equation. Inhibitory rate=100−{(C)−(B)/(A)−(B)}×100(%)

T1 sequence (O76083 whole entry): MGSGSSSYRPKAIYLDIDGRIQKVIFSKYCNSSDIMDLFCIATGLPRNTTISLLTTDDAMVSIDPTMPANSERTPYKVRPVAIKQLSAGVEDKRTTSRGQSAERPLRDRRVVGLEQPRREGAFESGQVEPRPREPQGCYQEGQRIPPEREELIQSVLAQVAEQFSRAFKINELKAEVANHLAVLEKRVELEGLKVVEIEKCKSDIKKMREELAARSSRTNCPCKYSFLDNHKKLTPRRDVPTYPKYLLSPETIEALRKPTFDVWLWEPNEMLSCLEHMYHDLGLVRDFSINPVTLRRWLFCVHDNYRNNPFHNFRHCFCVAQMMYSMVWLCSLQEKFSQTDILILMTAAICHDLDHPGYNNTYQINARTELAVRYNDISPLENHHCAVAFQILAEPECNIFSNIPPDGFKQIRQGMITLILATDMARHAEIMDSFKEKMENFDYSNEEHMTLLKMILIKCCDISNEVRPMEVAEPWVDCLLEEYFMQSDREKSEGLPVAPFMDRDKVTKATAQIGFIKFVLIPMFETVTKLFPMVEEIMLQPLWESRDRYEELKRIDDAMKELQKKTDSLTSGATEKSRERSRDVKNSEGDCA

| IC50 (PDE9) [nM] | melting point | Structure (SMILES) |
| --- | --- | --- |
| 3.6 | 257 °C (dec.) | COCc1cc2c(cc1C(=O)N1CCc3cc(Cl)ccc31)[nH]c(=O)c1nnc(CC3CC3)n12.Cl [Example 522] |
| 0.9 | 234 to 237 °C | Cc1cc2c(cc1C(=O)N1CCc3cc(Cl)ccc31)[nH]c(=O)c1cnc([C@H]3CC[C@H](C(N)=O)CC3)n12 [Example 528] |
